Test results published in article PMC10499603, “Polθ is phosphorylated by PLK1 to repair double-strand breaks in mitosis” (Nature, 2023).

Tests used:
[1] = system: RPE-1 cells expressing GFP–Polθ; assay: siRNA screen, cell count; type: cell-based, human
Source text: (§1) The Human DDR siRNA library comprising 1,746 single siRNAs representing 582 human genes (3 siRNAs per gene) was obtained from ThermoFisher Scientific (A30089). For controls, siRNAs targeting GL2, kinesin family member 11 (KIF11) and GM130 were used to assess transfection efficacy and induced cell toxicity. FANCD2 siRNA ([…]dT, defined as FANCD2-ctrl in Supplementary Table 1) was used as a positive control inhibiting Polθ foci formation. RPE-1 cells expressing GFP–Polθ (250 cells per well in 384-well plates) were grown overnight. siRNAs were incubated 15 min with 0.05 μl Interferin reagent (Polyplus transfection) and Opti-MEM (ThermoFisher Scientific) prior to being transferred into each 384-well plate wells, to obtain a 10 nM final concentration. Cells were irradiated 72 h after transfection, at a dose of 5 Gy (226 s) with the CIXD irradiator (RadeXp platform, Institut Curie) and incubated at 37 °C, 5% CO2 for 2 h. […] Polθ was then identified as organelles in the nuclei area and quantified by the average intensity of pixels within the defined organelles region. […] Corrected values were normalized as follows: sample median and median absolute deviation (MAD) were calculated from the Interferin-treated population of each internal plate data points (named as Ref pop) and used to compute robust Z-scores[59] […]

[2] = system: Polθ foci formation in RPE-1 cells expressing GFP–Polθ; assay: siRNA screen for ionizing radiation-induced Polθ foci formation; type: cell-based, human; details: 10 nM siRNA, 72 h, then 5 Gy, 2 h; cells with at least 5 Polθ foci; median RZ score of the three siRNAs, three replicate experiments
Source text: as §1

“GGAGAUUGAUGGUCUACUATdT (GGAGAUUGAUGGUCUACUATT; chemistry not given here) [fancd2-ctrl]” was tested, and the Toxicity threshold [1] was “Toxic” and the “Robust z score_corrected_Cells multi-foci_MultiFoci (%)” value [2] was -7.14.
